Experimental data from publication PMC10108353, “Design and Pharmacological Characterization of α4β1 Integrin Cyclopeptide Agonists: Computational Investigation of Ligand Determinants for Agonism versus Antagonism” (Journal of Medicinal Chemistry, 2023).

How the values were obtained:
αMβ2 integrin [1] = molecular target: T1, αMβ2 integrin (Homo sapiens, UniProt P05107+P11215); assay: Competitive solid-phase binding assay, purified αMβ2 / fibrinogen; design: purchased R&D Systems; details: read-out: Binding affinity IC50, αMβ2/Fg
Description: (§1) For the evaluation of binding affinity to purified α4β1, αMβ2, and α4β7 integrins, competitive solid-phase ligand binding assays were performed as follows. […] Afterward, each well was washed and blocked for 1 h at RT. Purified integrins (α4β1: 0.5 μg/mL; α4β7: 0.5 μg/mL; αMβ2: 0.5 μg/mL; R&D Systems) were preincubated with serial dilutions of new compounds (10^–4 – 10^–10 M) for 30 min at RT and then plated into coated wells for 1 h at RT. After two washes, primary antibody (for α4β1 and α4β7: rabbit anti-α4, Abcam, 1:100 dilution; for αMβ2: rabbit anti-αM, Abcam, 1:100 dilution) was added and incubated for 1 h at RT. The plate was washed twice and then was incubated with anti-rabbit AlexaFluor488 secondary antibody (1:400 dilution, ThermoFischer Scientific) for 1 h at RT. After washing three times, fluorescence was measured as described in the previous section.
Target sequence in this assay (P05107 23-700 limits assumed, other chains not shown): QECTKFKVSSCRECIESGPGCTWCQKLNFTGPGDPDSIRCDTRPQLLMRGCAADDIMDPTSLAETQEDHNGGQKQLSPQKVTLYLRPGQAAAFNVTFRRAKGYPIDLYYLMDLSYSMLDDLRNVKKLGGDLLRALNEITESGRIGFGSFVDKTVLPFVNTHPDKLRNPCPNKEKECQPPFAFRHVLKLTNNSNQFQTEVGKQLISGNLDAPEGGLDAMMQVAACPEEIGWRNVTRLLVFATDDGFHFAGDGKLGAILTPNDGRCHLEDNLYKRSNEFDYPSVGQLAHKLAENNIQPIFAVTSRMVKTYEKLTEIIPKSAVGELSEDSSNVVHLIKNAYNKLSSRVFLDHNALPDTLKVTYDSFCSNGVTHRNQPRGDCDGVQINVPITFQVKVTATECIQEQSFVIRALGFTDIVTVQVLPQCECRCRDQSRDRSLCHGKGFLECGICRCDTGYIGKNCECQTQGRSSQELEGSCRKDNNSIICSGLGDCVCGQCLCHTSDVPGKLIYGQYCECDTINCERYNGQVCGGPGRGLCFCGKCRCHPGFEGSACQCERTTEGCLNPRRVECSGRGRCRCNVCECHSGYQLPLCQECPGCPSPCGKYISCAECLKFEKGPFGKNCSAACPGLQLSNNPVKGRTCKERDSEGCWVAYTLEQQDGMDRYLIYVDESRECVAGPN

αLβ2 integrin = αLβ2 integrin (Homo sapiens, UniProt P05107+P20701); assay: Competitive solid-phase binding assay, purified αLβ2 / ICAM-1; details: read-out: Binding affinity IC50, αLβ2/ICAM-1
Chain of αLβ2 integrin (P20701 26-1170): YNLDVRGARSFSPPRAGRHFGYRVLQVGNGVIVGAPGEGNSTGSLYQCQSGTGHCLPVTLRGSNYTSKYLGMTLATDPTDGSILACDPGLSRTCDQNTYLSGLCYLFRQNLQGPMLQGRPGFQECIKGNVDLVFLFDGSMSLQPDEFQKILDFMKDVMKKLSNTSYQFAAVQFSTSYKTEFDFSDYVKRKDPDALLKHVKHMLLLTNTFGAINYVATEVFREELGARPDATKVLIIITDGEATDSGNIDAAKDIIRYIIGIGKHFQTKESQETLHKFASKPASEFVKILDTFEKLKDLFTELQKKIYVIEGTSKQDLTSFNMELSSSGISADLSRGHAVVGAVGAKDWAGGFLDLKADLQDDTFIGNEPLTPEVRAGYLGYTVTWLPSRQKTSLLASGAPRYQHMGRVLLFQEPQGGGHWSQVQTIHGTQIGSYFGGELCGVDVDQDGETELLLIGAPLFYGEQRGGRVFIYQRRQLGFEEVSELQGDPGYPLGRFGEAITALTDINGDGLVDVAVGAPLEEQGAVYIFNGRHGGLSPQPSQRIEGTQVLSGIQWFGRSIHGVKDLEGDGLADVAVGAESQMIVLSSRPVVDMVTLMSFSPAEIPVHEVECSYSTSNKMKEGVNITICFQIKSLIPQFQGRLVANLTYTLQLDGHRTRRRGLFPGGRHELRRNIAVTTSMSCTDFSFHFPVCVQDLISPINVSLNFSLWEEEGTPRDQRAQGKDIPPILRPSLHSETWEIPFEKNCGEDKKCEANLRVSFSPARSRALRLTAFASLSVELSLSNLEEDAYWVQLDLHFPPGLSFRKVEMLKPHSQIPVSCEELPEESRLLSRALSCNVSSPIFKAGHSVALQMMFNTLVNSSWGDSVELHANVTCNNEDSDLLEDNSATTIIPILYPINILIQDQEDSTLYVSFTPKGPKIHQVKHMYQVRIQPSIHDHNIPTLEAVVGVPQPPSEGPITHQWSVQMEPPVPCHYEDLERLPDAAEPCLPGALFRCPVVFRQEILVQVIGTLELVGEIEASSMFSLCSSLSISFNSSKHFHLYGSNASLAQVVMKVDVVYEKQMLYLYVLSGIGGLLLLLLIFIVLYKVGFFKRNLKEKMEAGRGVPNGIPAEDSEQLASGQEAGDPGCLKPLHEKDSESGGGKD
Chain of αLβ2 integrin (P05107 23-769): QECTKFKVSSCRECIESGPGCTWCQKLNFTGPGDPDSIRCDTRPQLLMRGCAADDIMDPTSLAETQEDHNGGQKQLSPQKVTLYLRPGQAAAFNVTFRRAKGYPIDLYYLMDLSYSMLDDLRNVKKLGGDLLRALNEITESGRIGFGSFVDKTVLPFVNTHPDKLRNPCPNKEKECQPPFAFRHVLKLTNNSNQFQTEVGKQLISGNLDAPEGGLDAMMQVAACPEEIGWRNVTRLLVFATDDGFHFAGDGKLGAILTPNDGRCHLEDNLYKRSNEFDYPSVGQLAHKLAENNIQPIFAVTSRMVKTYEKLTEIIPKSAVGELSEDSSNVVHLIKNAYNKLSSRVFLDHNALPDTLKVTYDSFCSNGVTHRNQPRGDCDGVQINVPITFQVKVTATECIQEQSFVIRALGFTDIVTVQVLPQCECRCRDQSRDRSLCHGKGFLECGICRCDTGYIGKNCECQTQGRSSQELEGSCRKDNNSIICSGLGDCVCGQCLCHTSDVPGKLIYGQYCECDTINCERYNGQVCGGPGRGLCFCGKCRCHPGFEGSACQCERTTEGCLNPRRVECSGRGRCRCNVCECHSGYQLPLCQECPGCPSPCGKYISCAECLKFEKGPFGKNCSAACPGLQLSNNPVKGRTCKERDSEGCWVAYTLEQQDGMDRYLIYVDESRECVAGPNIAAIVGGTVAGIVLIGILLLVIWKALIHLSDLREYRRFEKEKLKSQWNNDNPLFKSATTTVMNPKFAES
Description: Solid-phase ligand binding assays on purified integrin were conducted as previously described[34] with the following modifications. […] The following day, wells were blocked with TSB buffer (20 mM Tris-HCl, 150 mM NaCl, 1 mM CaCl2, 1 mM MgCl2, 1 mM MnCl2, pH 7.5, 1% BSA) for 1 h at room temperature. Purified α5β1 (10 μg/mL) or αLβ2 (7 μg/mL) was incubated with the new synthesized compounds, at different concentrations (10^–4 to 10^–10 M), in coated wells for 1 h at RT. Then, after three washes with PBST buffer, primary antibody (anti-α5β1, BD Bioscience, 1:100 dilution or anti-αL, Abcam, 1:200 dilution) was added for 1 h at RT. Then antirabbit AlexaFluor488-secondary antibody (ThermoFisher Scientific, 1:400 dilution) was added after three washes with PBST buffer and incubated 1 h at room temperature.

αMβ2 integrin [2] = molecular target: T1, αMβ2 integrin; assay: HL60 cell adhesion to fibrinogen (Fg); type: cell-based; details: read-out: IC50 for antagonists, Fg/HL60 αMβ2
Excerpt: (§2) mediated Jurkat cell adhesion to FN.
Target sequence in this assay (P05107 23-769, other chains not shown): as the sequence (P05107 23-769) above

α4β1 integrin [3] = molecular target: T2, α4β1 integrin (Homo sapiens, UniProt P05556+P13612); assay: Competitive solid-phase binding assay, purified α4β1 / FN; design: purchased R&D Systems; details: mean ± SD, three experiments in triplicate, read-out: Binding affinity IC50, α4β1/FN
Description: as §1
Target sequence in this assay (P05556 21-728 limits assumed, one chain of several): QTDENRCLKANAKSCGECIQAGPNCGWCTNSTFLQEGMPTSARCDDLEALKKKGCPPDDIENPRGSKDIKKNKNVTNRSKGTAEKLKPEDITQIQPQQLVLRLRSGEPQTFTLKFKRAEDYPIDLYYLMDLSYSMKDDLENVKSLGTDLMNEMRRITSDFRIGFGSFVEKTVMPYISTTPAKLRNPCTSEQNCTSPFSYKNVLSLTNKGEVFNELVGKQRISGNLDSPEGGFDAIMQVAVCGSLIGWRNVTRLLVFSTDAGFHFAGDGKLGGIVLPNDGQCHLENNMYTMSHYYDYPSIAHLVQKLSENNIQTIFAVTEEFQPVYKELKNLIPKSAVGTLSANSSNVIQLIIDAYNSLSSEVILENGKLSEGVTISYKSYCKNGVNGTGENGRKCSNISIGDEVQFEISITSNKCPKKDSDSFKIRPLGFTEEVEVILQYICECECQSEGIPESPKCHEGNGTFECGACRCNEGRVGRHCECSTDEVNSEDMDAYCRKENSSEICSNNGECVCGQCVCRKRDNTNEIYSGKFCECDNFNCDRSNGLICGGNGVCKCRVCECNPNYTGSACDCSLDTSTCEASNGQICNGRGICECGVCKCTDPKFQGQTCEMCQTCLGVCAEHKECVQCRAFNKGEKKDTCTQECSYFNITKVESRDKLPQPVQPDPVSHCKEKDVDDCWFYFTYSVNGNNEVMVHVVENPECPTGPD

α4β7 integrin = molecular target: T3, α4β7 integrin (Homo sapiens, UniProt P13612+P26010); assay: cell-based; type: cell-based; details: for IC50: reduction of cell adhesion, >5000 = inactive compounds (IC50/EC50), read-out: IC50 for antagonists, MAdCAM-1/RPMI8866 α4β7
T3 construct: RPMI8866 cells expressing α4β7 integrin to the ligand MAdCAM-1; endogenous in cells; host or cells: RPMI8866
T3 sequence (P13612 34-1032): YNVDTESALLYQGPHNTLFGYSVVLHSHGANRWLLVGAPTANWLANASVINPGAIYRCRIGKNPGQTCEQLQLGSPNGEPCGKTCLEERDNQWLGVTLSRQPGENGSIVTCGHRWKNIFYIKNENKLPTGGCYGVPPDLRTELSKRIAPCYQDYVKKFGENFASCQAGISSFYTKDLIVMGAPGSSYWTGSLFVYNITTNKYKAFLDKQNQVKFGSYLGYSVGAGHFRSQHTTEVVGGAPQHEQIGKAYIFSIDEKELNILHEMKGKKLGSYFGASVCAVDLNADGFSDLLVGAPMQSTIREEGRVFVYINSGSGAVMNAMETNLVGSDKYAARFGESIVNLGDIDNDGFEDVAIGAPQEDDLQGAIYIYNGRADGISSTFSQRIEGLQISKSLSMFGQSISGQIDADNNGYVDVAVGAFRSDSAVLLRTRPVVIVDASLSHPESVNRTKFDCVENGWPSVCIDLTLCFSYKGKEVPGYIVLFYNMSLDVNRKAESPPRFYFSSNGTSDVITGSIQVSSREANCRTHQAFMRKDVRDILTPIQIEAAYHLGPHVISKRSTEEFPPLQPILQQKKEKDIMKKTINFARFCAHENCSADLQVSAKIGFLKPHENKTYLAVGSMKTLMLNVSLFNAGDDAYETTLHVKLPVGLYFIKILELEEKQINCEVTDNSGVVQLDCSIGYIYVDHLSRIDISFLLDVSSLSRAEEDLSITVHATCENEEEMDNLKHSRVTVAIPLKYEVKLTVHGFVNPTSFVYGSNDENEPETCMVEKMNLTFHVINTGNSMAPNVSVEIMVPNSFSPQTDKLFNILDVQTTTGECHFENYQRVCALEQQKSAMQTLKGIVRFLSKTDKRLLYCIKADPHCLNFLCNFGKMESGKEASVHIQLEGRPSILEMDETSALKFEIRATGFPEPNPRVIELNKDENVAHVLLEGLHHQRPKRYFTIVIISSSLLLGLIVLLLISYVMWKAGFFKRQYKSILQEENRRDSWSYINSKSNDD
T3 sequence (P26010 20-798): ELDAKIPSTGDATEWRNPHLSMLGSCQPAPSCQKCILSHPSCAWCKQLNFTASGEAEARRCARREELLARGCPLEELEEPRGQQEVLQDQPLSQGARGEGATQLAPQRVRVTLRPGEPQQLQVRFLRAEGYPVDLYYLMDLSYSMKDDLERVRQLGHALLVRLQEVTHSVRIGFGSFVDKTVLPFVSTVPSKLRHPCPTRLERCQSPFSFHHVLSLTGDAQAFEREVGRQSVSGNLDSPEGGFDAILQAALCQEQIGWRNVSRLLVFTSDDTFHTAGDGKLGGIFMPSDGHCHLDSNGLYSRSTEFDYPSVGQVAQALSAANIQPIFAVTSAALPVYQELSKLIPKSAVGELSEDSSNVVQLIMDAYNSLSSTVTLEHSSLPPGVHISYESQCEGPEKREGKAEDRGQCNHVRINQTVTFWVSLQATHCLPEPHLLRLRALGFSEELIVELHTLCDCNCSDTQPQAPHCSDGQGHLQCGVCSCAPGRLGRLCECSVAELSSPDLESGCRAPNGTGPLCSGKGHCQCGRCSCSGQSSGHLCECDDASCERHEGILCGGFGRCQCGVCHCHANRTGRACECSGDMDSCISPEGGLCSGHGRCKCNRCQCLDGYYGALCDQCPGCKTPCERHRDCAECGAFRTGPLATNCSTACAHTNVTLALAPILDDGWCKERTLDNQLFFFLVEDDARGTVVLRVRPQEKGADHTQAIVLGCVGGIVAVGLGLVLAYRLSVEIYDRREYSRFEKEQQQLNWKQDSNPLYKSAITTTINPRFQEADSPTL
Excerpt: as §2

α4β1 integrin [4] = molecular target: T2, α4β1 integrin; assay: Jurkat E6.1 cell adhesion to FN; details: for agonist or antagonist behaviour, FN/Jurkat E6.1 α4β1: agonist = adhesion index >1, antagonist = adhesion index <1
Target sequence in this assay (P05556 21-798, one chain of several): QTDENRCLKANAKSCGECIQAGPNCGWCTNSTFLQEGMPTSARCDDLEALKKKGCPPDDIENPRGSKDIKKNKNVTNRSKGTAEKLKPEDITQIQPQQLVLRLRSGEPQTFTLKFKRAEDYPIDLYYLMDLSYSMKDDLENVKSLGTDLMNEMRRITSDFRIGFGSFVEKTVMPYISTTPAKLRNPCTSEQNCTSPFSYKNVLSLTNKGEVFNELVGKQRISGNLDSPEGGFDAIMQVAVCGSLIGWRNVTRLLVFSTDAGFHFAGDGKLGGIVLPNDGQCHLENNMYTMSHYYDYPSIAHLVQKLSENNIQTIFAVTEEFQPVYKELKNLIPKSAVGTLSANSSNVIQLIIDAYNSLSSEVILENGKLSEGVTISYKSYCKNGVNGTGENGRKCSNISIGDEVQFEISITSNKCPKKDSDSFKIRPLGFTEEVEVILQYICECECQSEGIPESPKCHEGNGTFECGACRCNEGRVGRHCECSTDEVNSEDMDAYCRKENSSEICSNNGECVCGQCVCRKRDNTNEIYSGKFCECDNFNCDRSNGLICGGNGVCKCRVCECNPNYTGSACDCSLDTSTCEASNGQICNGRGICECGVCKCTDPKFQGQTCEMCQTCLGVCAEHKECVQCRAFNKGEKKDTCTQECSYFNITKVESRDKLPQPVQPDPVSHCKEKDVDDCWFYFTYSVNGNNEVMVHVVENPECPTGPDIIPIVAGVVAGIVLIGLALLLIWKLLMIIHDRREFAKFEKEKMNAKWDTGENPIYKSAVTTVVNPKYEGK
Description: Cells were seeded in 96-well plates coated with the specific natural human recombinant ligands (Table 1) and allowed to adhere in the presence of increasing concentrations (10^–10 to 10^–4 M) of the synthesized CPPs before the determination of the number of adherent cells (as described in Experimental Section).
For adhesion assays on Jurkat E6.1, RPMI8866, or HL60 cells, black 96-well plates were coated overnight at 4 °C with VCAM-1 or ICAM-1 or MAdCAM-1 (5 μg/mL) or Fg (10 μg/mL). The cells were counted, stained with CellTracker green CMFDA (12.5 μM, 30 min at 37 °C, Life Technologies), and after three washes, were preincubated with increasing concentrations of new CPP (10^–10 to 10^–4 M) or with the vehicle (methanol) for 30 min at 37 °C. Then cells were plated (500 000/well) on coated wells and incubated for 30 min at 37 °C. After three washes, adhered cells were lysed with 0.5% Triton X-100 in PBS (30 min at 4 °C) and fluorescence was measured (Ex485 nm/Em535 nm) in an EnSpire Multimode Plate Reader (PerkinElmer, Waltham, MA). For adhesion assays mediated by α5β1 integrin, 96-well plates were coated by passive adsorption with FN (10 μg/mL) overnight at 4 °C. K562 cells were counted and preincubated with various concentrations of the peptides or with the vehicle (methanol) for 30 min at RT. Afterward, the cells were plated (50 000 cells/well) and incubated at RT for 1 h. The wells were then washed with 1% BSA in PBS (phosphate-buffered saline) to take off nonadherent cells, and 50 μL of hexosaminidase substrate was added; after addition of 100 μL of stopping solution, the plates were read at 405 nm. In both types of adhesion assay, the number of adherent cells was determined by comparison with a standard curve made in the same plate. Experiments were carried out in quadruplicate and repeated at least three times.
Jurkat E6.1 (expressing α4β1 and αLβ2 integrin), K562 (expressing α5β1 integrin) and HL60 (expressing αMβ2 integrin) cell lines were purchased from ATCC (Rockville, MD, USA); these cells were routinely cultured in RPMI-1640 (Life Technologies) supplemented with glutamine and 10% FBS.
Cells were grown at 37 °C under 5% CO2 humidified atmosphere.

Row | SMILES | IC50 (αMβ2 integrin [1]) [µM] | IC50 (αLβ2 integrin) [µM] | IC50 (αMβ2 integrin [2]) [µM] | IC50 (α4β1 integrin [3]) [µM] | IC50 (α4β7 integrin) [µM] | agonist or antagonist behaviour, FN/Jurkat E6.1 α4β1 (α4β1 integrin [4]) | agonist or antagonist behaviour, MAdCAM-1/RPMI8866 α4β7 (α4β7 integrin; agonist = adhesion index >1, antagonist = adhesion index <1) | EC50 (α4β1 integrin [4]; read-out: EC50 for agonists, FN/Jurkat E6.1 α4β1, increase of cell adhesion, mean ± SD, three experiments in quadruplicate) [µM]
1 | Cc1ccccc1NC(=O)N1C(=O)CC1CC(=O)NCC(=O)O (centres unmarked) [1b] | > 5 | > 5 | > 5 | > 5 | > 5 | completely ineffective |  | 
2 | Cc1ccccc1NC(=O)N1C(=O)CC1CC(=O)O (centres unmarked) [1a] | > 5 | > 5 | > 5 | 0.0133 ± 0.0063 | > 5 | agonist | inactive | 0.0156 ± 0.0015
